Experimental data taken from patent publication EP0527889B1, “QUINOLIZINONE TYPE COMPOUNDS” (priority 1990, dated 1991).
Where a name gives a salt, the structure may show the parent alone.

What was measured:
[1] = test system: Staphylococcus aureus NCTC 10649; test: In vivo antibacterial activity in mice (protection from lethal intraperitoneal infection); settings: NCTC10649, 144 h, S. aureus, CF-1 female mice infected intraperitoneally with 100 times the LD50, treated at 1 and 5 hr after infection, cumulative mortalities on the sixth day
Protocol: (§1) The in vivo antibacterial activity of the compounds of the present invention was determined as follows: Aqueous solutions of the test compounds were prepared by dissolving the compound in distilled water, except for the compounds of examples 169 and 170 which were dissolved in a solution of 2% DMSO in distilled water.
(§2) After 18 hr incubation, a culture of Staphylococcus aureus NCTC 10649 was serially diluted by using 10-fold dilutions in 5% (w/v) hog gastric mucin. Cultures (0.5 mL) in a dilution from 10^-1 to 10^-8 were injected intraperitoneally into CF-1 female mice weighing approximately 20g. The LD50 (median lethal dose) for the test organism was calculated from the cumulative mortalities on the sixth day by the using the Reed and Muench procedure (Reed, L.J., and H. Muench, Amer. J. Hygiene, 27, 493 (1938)).
(§3) The above 18 hr culture was diluted in 5% (w/v) hog gastric mucin to obtain 100 times the LD50, and 0.5 mL was injected intraperitoneally into mice. The mice were treated subcutaneously (sc) or orally (po) with a specific amount of the test compound divided equally to be administered at 1 and 5 hr after infection. A group of 10 animals each for at least three dose levels was thus treated, and the deaths were recorded daily for 6 days. Ten mice were left untreated as infection control. ED50 values were calculated from the cumulative mortalities on the sixth day after infection by using the trimmed version of the Logit method ( Hamilton, M.A., R.C. Russo, and R.V. Thurston, Environ. Sci. Technol. 11, 714 (1977)).

Escherichia coli JUHL [2] = test: as above; settings: 144 h, E. coli JUHL, mice infected intraperitoneally, treated at 1 and 5 hr after infection, cumulative mortalities on the sixth day
Protocol: as §1, §2, §3
The LD50 for Escherichia coli JUHL was determined in a manner similar to that above for S. aureus. The 18 hr cultures of this organism were also prepared for po and sc testing in mice, from which ED50 values were calculated. Positive controls were run with temafloxacin as the test compound, for which ED50 values were also calculated.

[3] = test system: Staphylococcus aureus ATCC 6538P; test: In vitro antibacterial activity, MIC by agar dilution; assay type: cell-based; settings: BHI agar, 35-37°C, 20-24 hours, unit assumed
How it was run: (§4)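 Using a Steers replicator, about 10^4 CFU of each diluted organism were spotted on agar with test compound. After ~20–24 h at 35–37°C, MIC was taken as the lowest concentration without growth compared with compound-free BHI agar; ciprofloxacin served as reference antibiotic.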

[4] = test system: Streptococcus pyrogenes EES61; test: as above; assay type: cell-based; settings: BHI agar, 35-37°C, 20-24 hours, unit assumed
How it was run: as §4

[5] = test system: Staphylococcus aureus 1775; test: as above; assay type: cell-based; settings: BHI agar, 35-37°C, 20-24 hours, unit assumed
How it was run: as §4

[6] = test system: Streptococcus agalactaciae CMX 508; test: as above; assay type: cell-based; settings: BHI agar, 35-37°C, 20-24 hours, unit assumed
How it was run: as §4

Pseudomonas cepacia 296I = test: as above; assay type: cell-based; settings: BHI agar, 35-37°C, 20-24 hours, unit assumed
How it was run: as §4

[7] = test system: Acinetobacter calcoaceticus CMX 669; test: as above; assay type: cell-based; settings: BHI agar, 35-37°C, 20-24 hours, unit assumed
How it was run: as §4

[8] = test system: Pseudomonas aeruginosa 5263; test: as above; assay type: cell-based; settings: BHI agar, 35-37°C, 20-24 hours, unit assumed
How it was run: as §4

[9] = test system: Micrococcus luteus ATCC 9341; test: as above; assay type: cell-based; settings: BHI agar, 35-37°C, 20-24 hours, unit assumed
How it was run: as §4

Escherichia coli JUHL [10] = test: as above; assay type: cell-based; settings: BHI agar, 35-37°C, 20-24 hours, unit assumed
How it was run: as §4

[11] = test system: Staphylococcus aureus 642A; test: as above; assay type: cell-based; settings: BHI agar, 35-37°C, 20-24 hours, unit assumed
How it was run: as §4

[12] = test system: Pseudomonas aeruginosa K799/WT; test: as above; assay type: cell-based; settings: BHI agar, 35-37°C, 20-24 hours, unit assumed
How it was run: as §4

[13] = test system: Klebsiella pneumoniae ATCC 8045; test: as above; assay type: cell-based; settings: BHI agar, 35-37°C, 20-24 hours, unit assumed
How it was run: as §4

[14] = test system: Streptococcus pyrogenes 2548 INDUC; test: as above; assay type: cell-based; settings: BHI agar, 35-37°C, 20-24 hours, unit assumed
How it was run: as §4

[15] = test system: Staphylococcus aureus CMX 553; test: as above; assay type: cell-based; settings: BHI agar, 35-37°C, 20-24 hours, unit assumed
How it was run: as §4

[16] = test system: Staphylococcus aureus A-5278; test: as above; assay type: cell-based; settings: BHI agar, 35-37°C, 20-24 hours, unit assumed
How it was run: as §4

Escherichia coli H560 = test: as above; assay type: cell-based; settings: BHI agar, 35-37°C, 20-24 hours, unit assumed
How it was run: as §4

Escherichia coli KNK 437 = test: as above; assay type: cell-based; settings: BHI agar, 35-37°C, 20-24 hours, unit assumed
How it was run: as §4

[17] = test system: Pseudomonas aeruginosa BMH10; test: as above; assay type: cell-based; settings: BHI agar, 35-37°C, 20-24 hours, unit assumed
How it was run: as §4

[18] = test system: Enterobacter aerogenes ATCC 13048; test: as above; assay type: cell-based; settings: BHI agar, 35-37°C, 20-24 hours, unit assumed
How it was run: as §4

[19] = test system: Micrococcus luteus ATCC 4698; test: as above; assay type: cell-based; settings: BHI agar, 35-37°C, 20-24 hours, unit assumed
How it was run: as §4

[20] = test system: Streptococcus pyrogenes CONST; test: as above; assay type: cell-based; settings: BHI agar, 35-37°C, 20-24 hours, unit assumed
How it was run: as §4

[21] = test system: Pseudomonas aeruginosa 2862; test: as above; assay type: cell-based; settings: BHI agar, 35-37°C, 20-24 hours, unit assumed
How it was run: as §4

[22] = test system: Staphylococcus aureus NCTC 10649; test: as above; assay type: cell-based; settings: BHI agar, 35-37°C, 20-24 hours, unit assumed
How it was run: as §4

[23] = test system: Providencia stuartii CMX 640; test: as above; assay type: cell-based; settings: BHI agar, 35-37°C, 20-24 hours, unit assumed
How it was run: as §4

[24] = test system: Staphylococcus aureus A5177; test: as above; assay type: cell-based; settings: BHI agar, 35-37°C, 20-24 hours, unit assumed
How it was run: as §4

Escherichia coli SS = test: as above; assay type: cell-based; settings: BHI agar, 35-37°C, 20-24 hours, unit assumed
How it was run: as §4

[25] = test system: Pseudomonas aeruginosa K799/61; test: as above; assay type: cell-based; settings: BHI agar, 35-37°C, 20-24 hours, unit assumed
How it was run: as §4

[26] = test system: Enterococcus faecium ATCC 8043; test: as above; assay type: cell-based; settings: BHI agar, 35-37°C, 20-24 hours, unit assumed
How it was run: as §4

[27] = test system: Pseudomonas aeruginosa A5007; test: as above; assay type: cell-based; settings: BHI agar, 35-37°C, 20-24 hours, unit assumed
How it was run: as §4

[28] = test system: Staphylococcus epidermidis 3519; test: as above; assay type: cell-based; settings: BHI agar, 35-37°C, 20-24 hours, unit assumed
How it was run: as §4

Escherichia coli DC-2 = test: as above; assay type: cell-based; settings: BHI agar, 35-37°C, 20-24 hours, unit assumed
How it was run: as §4

[29] = test system: Streptococcus bovis A5169; test: as above; assay type: cell-based; settings: BHI agar, 35-37°C, 20-24 hours, unit assumed
How it was run: as §4

Structure (SMILES)	ED50 ([1]; po)	ED50 ([1]; sc)	ED50 (Escherichia coli JUHL [2]; po)	ED50 (Escherichia coli JUHL [2]; sc)	MIC values [3]	MIC values [4]	MIC values [5]	MIC values [6]	MIC values (Pseudomonas cepacia 296I)	MIC values [7]	MIC values [8]	MIC values [9]	MIC values (Escherichia coli JUHL [10])	MIC values [11]	MIC values [12]	MIC values [13]	MIC values [14]	MIC values [15]	MIC values [16]	MIC values (Escherichia coli H560)	further results
C[C@H](N)C(=O)N[C@@H](C)C(=O)NC1CCN(c2nc3c(-c4ccc(F)cc4F)cc(C(=O)O)c(=O)n3cc2F)C1 (stereo partly drawn) [Example 168, 2-(3-(N-(S)-Alanyl-(S)-alanyl)aminopyrrolidin-1-yl)-9-(2,4-difluorophenyl)-3-fluoro-6H-6-oxopyrido[1,2-a]pyrimidine-7-carboxylic acid hydrochloride]	3 mg/kg	2.8 mg/kg	14.3 mg/kg	< 2.5 mg/kg	0.78 µg/mL	6.2 µg/mL	> 100 µg/mL	6.2 µg/mL	> 100 µg/mL	12.5 µg/mL	> 100 µg/mL	50 µg/mL	0.78 µg/mL	3.1 µg/mL	6.2 µg/mL	3.1 µg/mL	1.56 µg/mL	6.2 µg/mL	3.1 µg/mL	0.78 µg/mL	MIC values (Escherichia coli KNK 437): 12.5 µg/mL; MIC values [17]: 3.1 µg/mL; MIC values [18]: 3.1 µg/mL; MIC values [19]: 50 µg/mL; MIC values [20]: 3.1 µg/mL; MIC values [21]: > 100 µg/mL; MIC values [22]: 0.78 µg/mL; MIC values [23]: 100 µg/mL; MIC values [24]: 3.1 µg/mL; MIC values (Escherichia coli SS): 0.05 µg/mL; MIC values [25]: 1.56 µg/mL; MIC values [26]: 12.5 µg/mL; MIC values [27]: 12.5 µg/mL; MIC values [28]: 3.1 µg/mL; MIC values (Escherichia coli DC-2): 25 µg/mL; MIC values [29]: 12.5 µg/mL
C[C@H]1C[C@H](N)CN1c1nc2c(-c3ccc(F)cc3F)cc(C(=O)O)c(=O)n2cc1F [Example 171, 2-((2S,4S)-4-Amino-2-methylpyrrolidin-1-yl)-9-(2,4-difluorophenyl)-3-fluoro-6H-6-oxopyrido[1,2-a]pyrimidine-7-carboxylic acid hydrochloride]	12.8 mg/kg	> 8 mg/kg	> 20 mg/kg	4.8 mg/kg	0.1 µg/mL	0.78 µg/mL	50 µg/mL	0.78 µg/mL	6.2 µg/mL	0.05 µg/mL	50 µg/mL	3.1 µg/mL	0.02 µg/mL	0.2 µg/mL	0.39 µg/mL	0.01 µg/mL	0.39 µg/mL	0.2 µg/mL	0.1 µg/mL	0.02 µg/mL	MIC values (Escherichia coli KNK 437): 0.39 µg/mL; MIC values [17]: 0.2 µg/mL; MIC values [18]: 0.1 µg/mL; MIC values [19]: 0.78 µg/mL; MIC values [20]: 0.78 µg/mL; MIC values [21]: 50 µg/mL; MIC values [22]: 0.1 µg/mL; MIC values [23]: 6.2 µg/mL; MIC values [24]: 0.1 µg/mL; MIC values (Escherichia coli SS): 0.001 µg/mL; MIC values [25]: 0.05 µg/mL; MIC values [26]: 0.78 µg/mL; MIC values [27]: 0.39 µg/mL; MIC values [28]: 0.2 µg/mL; MIC values (Escherichia coli DC-2): 0.78 µg/mL; MIC values [29]: 1.56 µg/mL
